Reference: patent US7786090B2, “Methods and compositions for treating and preventing neurologic disorders” (President and Fellows of Harvard College, priority 2006, dated 2010)
Square brackets hold non-standard residues; d marks the D form. Ends that are not written are not given here. Peptide text beside a SMILES is read from it. * marks the point of attachment. pS = N[C@@H](COP(=O)(O)O)C(=O)O; Cbz = O=C(OCc1ccccc1)*

Legend:
Pin1 = Pin1 (Homo sapiens, UniProt Q13526); conditions: Daum et al. 2006; cited from earlier work
[1] = molecular target: T1, interaction of Pin1 with JIP3 (Homo sapiens, UniProt Q13526); assay: GST-Pin1 pulldown with increasing Pintide, Pin1-JIP3 interaction; format: binding; parameters: dose or concentration left out as unconfirmed; conditions: lysates of 293T cells transfected with FLAG-JIP3, Pintide 0, 2.5, 5, 10, 25
T1 construct: made in house; FLAG-JIP3: lysate of transfected 293T cells
Procedure: (§1) FIG. 2G is a series of immunoblot photographs. Lysates of 293T cells transfected with FLAG-JIP3 or FLAG-BIMEL together with FLAG-MEKK1Δ were subjected to a GST-Pin1 pulldown assay in the presence of increasing amount of Pintide peptide ([…]), followed by immunoblotting for FLAG and GST. Representative immunoblots of three independent experiments are shown.
(§2) GST-pulldown assays were performed as described by Ryo et al., Mol. Cell 12: 1413-1426, 2003. Immunoprecipitations and subcellular fractionations were performed as described by Konishi et al., Science 303: 1026-1030, 2004. The postnuclear supernatant was further centrifuged at 10,000 g for 30 min to pellet the mitochondrially-enriched heavy membrane (HM) fraction. Antibodies to BIM (Stressgen); phospho65 BIM antibody (Biosource); HA, HSP60, JIP3, GST (Santa Cruz Biotechnology); FLAG (Sigma); P-c-Jun, MKK7, Pin1 (Cell Signaling); SP1, JNK (Upstate); GFP (Molecular Probes) are available commercially.
(§3) Thus, similar to BIMEL, JIP3 interacts with Pin1 in a phosphorylation-dependent manner.

[2] = molecular target: T2, interaction of Pin1 with BIMEL (Homo sapiens, UniProt Q13526); assay: GST-Pin1 pulldown with increasing Pintide, Pin1-BIMEL interaction; format: binding; conditions: lysates of 293T cells transfected with FLAG-BIMEL and FLAG-MEKK1Δ, Pintide 0, 2.5, 5, 10, 25, 50 mM
T2 construct: made in house; FLAG-BIMEL: lysate of 293T cells co-transfected with FLAG-MEKK1Δ
Procedure: as §1, §2, §3

[3] = tested on: interaction of Pin1 and JIP3; assay: Co-immunoprecipitation of endogenous Pin1 and JIP3 in granule neurons; format: cell-based, rat; conditions: exposure of granule neurons to JNK activating stimuli
Procedure: Lysates from granule neurons that were kept in conditioned full medium (CM) or starved for 2 h (Starv) were immunoprecipitated using a JIP3 antibody, followed by immunoblotting for Pin1. Left panels show the expression of JIP3 and Pin1.
To determine whether the binding of Pin1 to JIP3 is regulated by an apoptotic stimulus, we measured the interaction of endogenous Pin1 and JIP3 in granule neurons that were left in full medium (conditioned medium, CM) or that were starved for two hours.

JNK signaling = JNK signaling in cerebellar granule neurons (phosphorylation of c-Jun and BIMEL); format: cell-based, rat; conditions: granule neurons treated for 5 h with 5 μM MG132
Procedure: FIG. 1C is a series of immunoblot photographs. Lysates of cerebellar granule neurons untreated or treated for 5 h with 5 μM MG132 were subjected to a pulldown with GST-Pin1 WW, followed by immunoblotting for BIM. Lower panels show the expression of BIMEL and phosphorylated c-Jun.
The phosphorylation of BIMEL at Ser65 triggers apoptosis specifically in neurons but not in non-neural cells. A critical regulatory post-phosphorylation event is the prolyl isomerization of proteins at sites of proline-dependent phosphorylation. A major function of Pin1 is to drive cells through mitosis in proliferating cells. Pin1 is also highly expressed in the nervous system. To assess whether Pin1 binds to Ser65-phosphorylated BIMEL in vitro, we used a GST pulldown assay. We expressed BIMEL in 293T cells alone or together with a constitutively active form of the kinase MEKK1 (MEKK1Δ), an upstream activator of JNK. Expression of MEKK1Δ results in the robust phosphorylation of BIMEL at Ser65, which is reflected by a mobility shift of BIMEL (FIG. 1A). Recombinant GST-Pin1, but not GST, specifically co-precipitated phosphorylated but not unphosphorylated BIMEL from cell lysates (FIG. 1A). […] In other experiments, we tested if a recombinant GST fusion protein containing the WW domain of Pin1 associates with BIMEL. The WW domain of Pin1 interacts specifically with phosphoSer/Thr-Pro motifs. […]

Pin1, sequence (Q13526 whole entry, species assumed): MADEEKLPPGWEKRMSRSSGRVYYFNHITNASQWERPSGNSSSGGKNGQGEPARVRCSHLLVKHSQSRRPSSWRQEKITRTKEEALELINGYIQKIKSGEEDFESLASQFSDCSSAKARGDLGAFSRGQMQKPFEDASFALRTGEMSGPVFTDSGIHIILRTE
T1 sequence (Q13526 whole entry): as the sequence (Q13526 whole entry, species assumed) above
T2 sequence (Q13526 whole entry): as the sequence (Q13526 whole entry, species assumed) above

| Compound | inhibition of Pin1 (Pin1) | interaction of Pin1 and JIP3 [3] | further results |
| --- | --- | --- | --- |
| COc1ccc(F)cc1C(=O)[C@]1(C)CCc2ccccc21 [(R)-9] | inhibit Pin1 |  |  |
| WFYpSPRLKK (WFY[pS]PRLKK) [Pintide] |  |  | disruption of the interaction of Pin1 with JIP3 [1]: disrupted the interaction of Pin1 with JIP3 and BIMEL in a dose-dependent manner; disruption of the interaction of Pin1 with BIMEL [2]: disrupted the interaction of Pin1 with JIP3 and BIMEL in a dose-dependent manner |
| COc1ccc(F)cc1C(=O)C1(C)CCc2ccccc21 (racemic) [rac-9] | inhibit Pin1 |  |  |
| OO [hydrogen peroxide] |  | led to a decrease |  |
| CC(C)C[C@@H](C=O)NC(=O)[C@H](CC(C)C)NC(=O)[C@H](CC(C)C)NC(=O)OCc1ccccc1 [MG132] (Cbz-Leu-Leu-Leu-aldehyde) |  | led to a decrease | JNK signaling (JNK signaling): activated JNK signaling |
